Experimental findings from patent US20190373936A1, “COMPOSITION, METHOD FOR PRODUCING THE SAME AND USE THEREOF” (INFINITUS (CHINA) COMPANY LTD., priority 2018, published 2019) are described below.

The nature of test [1]: Body weight of SD rats fed high-fat diet during administration of test sample. Type of test: in vivo. The note with it: positive control groups (omega 150 mg/kg; atorvastatin calcium 0.83 mg/kg), 30 days. From the text: In the present disclosure, reference was made to the method for testing the function of facilitating lowering blood-lipid in the Technical specification for health care food inspection and evaluation (2012 Updated Edition). SPF grade male SD rats were used as experimental animals. After the adaption period, an animal model of the combined hyperlipidemia was established, and the rats were randomly divided into groups according to TC level. Three dosage groups were continuously administered with the composition provided by the present disclosure by gavage at a dosage of 500 mg/kg·BW (equaled to 5 times of recommendation amount for human), 1000 mg/kg·BW (equaled to 10 times of recommendation amount for human) and 2500 mg/kg·BW (equaled to 25 times of recommendation amount for human), respectively. […]
After grouping, each dosage group was orally administered with the test sample every day, the two positive groups were respectively orally administered with positive control samples (diluted Omega solution and diluted atorvastatin calcium solution), and the blank control group and the model control group were administered with the same volume of distilled water. […] After blood collection, the serum was quickly separated, and levels of TC, TG, HDL-C, LDL-C, ox-HDL-C, ox-LDL-C, apo-A1 and apo-β in serum were measured.

The subject of test [2] is SD rats of combined hyperlipidemia model. The test is described as follows: Function of facilitating lowering blood lipid: serum lipid indexes by ELISA in combined hyperlipidemia SD rat model. Type of test: in vivo. An excerpt:
In the present disclosure, reference was made to the method for testing the function of facilitating lowering blood-lipid in the Technical specification for health care food inspection and evaluation (2012 Updated Edition). SPF grade male SD rats were used as experimental animals. After the adaption period, an animal model of the combined hyperlipidemia was established, and the rats were randomly divided into groups according to TC level. Three dosage groups were continuously administered with the composition provided by the present disclosure by gavage at a dosage of 500 mg/kg·BW (equaled to 5 times of recommendation amount for human), 1000 mg/kg·BW (equaled to 10 times of recommendation amount for human) and 2500 mg/kg·BW (equaled to 25 times of recommendation amount for human), respectively. The blank control group and the model control group were administered with the same volume of distilled water by gavage. Each group was weighed regularly. 30 days after the administration, blood samples were collected without fasting, and levels of TC, TG, HDL-C, LDL-C, ox-HDL, ox-LDL, apo-A1 and apo-β were tested.
Name: SPF grade male SD rats, body weight 170˜220 g
High-fat diet: maintenance diet with 20.0% sucrose, 15% lard, 1.2% cholesterol, 0.2% sodium cholate, appropriate amounts of casein, calcium hydrogen phosphate, rock powders and so on. Except for crude fat, water content, crude protein, crude fat, crude fiber, ash, calcium, phosphate and calcium:phosphate ratio reached the national standard for maintenance diet.
Surgical instruments, centrifuges, centrifuge tubes, electronic balances, punchers, gavage needles, enzyme-labeled instruments, heparin sodium, anesthetic, formalin, refrigerators, vortex mixer, weighing scale, serum total cholesterol (TC) ELISA kit, serum triglyceride (TG) ELISA kit, serum high-density lipoprotein cholesterol (HDL-C) ELISA kit, serum low-density lipoprotein cholesterol (LDL-C) ELISA kit, serum oxidized high-density lipoprotein cholesterol (ox-HDL-C) ELISA kit, serum oxidized low-density lipoprotein cholesterol (ox-LDL-C) ELISA kit, serum apolipoprotein A1 (apo-A1) ELISA kit, and serum apolipoprotein (apo-β) ELISA kit.
There were three dosage groups, two positive control groups, one blank control group and one model control group. In low-dosage group, the test sample was administered at a dosage of 5 times of the recommendation amount for human (500 mg/kg), and in middle-dosage and high-dosage groups, the dosages equaled to 10 times (1000 mg/kg) and 25 times (2500 mg/kg) of the recommendation amount for human. The dosage of the positive control group equaled to 5 times (omega: 150 mg/kg; and atorvastatin calcium: 0.83 mg/kg) of the recommendation amount for human. The blank control group and the model control group were administered with equal amount of distilled water at the same volume by gavage. The duration of the administration of the test sample was generally 30 days.
The compositions provided by the examples 1˜3, the powder formulations provided by the examples 4˜6 were accurately weighed, and an appropriate amount of distilled water was added to prepare the low-, middle- and high-dosages samples. The samples were prepared right before use.
(1) Adaptive period: In a barrier system, the rats were fed on maintenance diet and observed for 5˜7 days.
The rats were randomly divided into 22 groups, 6 per group. One group was fed on the maintenance diet as the blank control group. The other 21 groups were fed on high-fat diet as the model control group. The rats were weighed once a week.
20 days after the model control group was fed on high-fat diet, rats in the blank control group and the model control groups were subjected to blood collection (1˜1.5 mL of blood was collected from the tail vein) without fasting. After blood collection, the serum was quickly separated to a new centrifugal tube, stored at −20° C. before test. […]
On the technique in general: In an ELISA, binding on a coated surface is turned into a signal by an enzyme label.

[3] abbreviates: positive control groups (omega 150 mg/kg; atorvastatin calcium 0.83 mg/kg), 30 days.

On to `CC(C)c1c(C(=O)Nc2ccccc2)c(-c2ccccc2)c(-c2ccc(F)cc2)n1CC[C@@H](O)C[C@@H](O)CC(=O)[O-].CC(C)c1c(C(=O)Nc2ccccc2)c(-c2ccccc2)c(-c2ccc(F)cc2)n1CC[C@@H](O)C[C@@H](O)CC(=O)[O-].[Ca+2]` [Atorvastatin Calcium, atorvastatin calcium], for which the “Final Weight (Mean Value ± Standard Deviation)” value in test [1] turned out to be 442.00 ± 40.77. In addition, the “Effect on Apo-β content in serum of SD rats” value in test [2] (compared with the model control group) is on record as “decreased”. Also, in test [2] (setting [3]), the “Apo-A1 levels in serum (Mean Value ± Standard Deviation)” value was 2693.75 ± 435.48 µg/mL, the “Apo-β levels in serum (Mean Value ± Standard Deviation)” value came to 735.00 ± 264.71 µg/mL, the “HDL-C levels in serum (Mean Value ± Standard Deviation)” value came to 919.74 ± 150.63 µmol/L and the “LDL-C levels in serum (Mean Value ± Standard Deviation)” value was 853.24 ± 235.19 µmol/L. Also, in test [2] (setting [3]), the “Ox-HDL-C levels in serum (Mean Value ± Standard Deviation)” value came to 35.88 ± 7.30 µg/L, the “Ox-LDL-C levels in serum (Mean Value ± Standard Deviation)” value worked out at 45.44 ± 7.40 µg/L, the “TC levels in serum (Mean Value ± Standard Deviation)” value was determined as 1117.14 ± 171.07 µmol/L and the “TG levels in serum (Mean Value ± Standard Deviation)” value was 189.71 ± 45.83 µmol/L.
